Activity calls are given as the source filed them. How the calls were made is not given here.
Molecular target: Influenza A virus M2 proton channel (A/TW/4845/1999 H1N1)
Test: NMR binding screen, influenza A virus M2 proton channel, Kd (AID 1549)
Settings: M2 protein

| Structure (SMILES) | Kd |
| --- | --- |
| Cc1onc(-c2ccccc2)c1CN | > 4 mM (inactive) |
| Cc1c(/C=N/O)cnn1C | > 4 mM (inactive) |
| COc1nc(C)ccc1-c1noc(-c2ccncc2)n1 | > 4 mM (inactive) |
| O=C(CSc1ccnc(=O)[nH]1)NCc1ccco1 | > 4 mM (inactive) |
| Cc1ccc(C(=O)Nn2cnnc2)s1 | > 4 mM (inactive) |
| OC1CC2CCC1C2 (configuration not stated) | > 4 mM (inactive) |
| CC(C)=CC(=O)Nc1ccc(S(N)(=O)=O)cc1 | > 4 mM (inactive) |
| C/C=C(\C)C(=O)OC1[C@@H]2C=C3C(CC[C@]4(C)C3CC(=O)O[C@H]4c3ccoc3)C(C)(C2=O)[C@@H](C(O)C(=O)OC)C1(C)C (some centres not stated) | > 4 mM (inactive) |
| COC(=O)C1CCc2ccccc2N1 (configuration not stated) | > 4 mM (inactive) |
| CNC(=O)C1=NCCCc2cc(OC)c(OC)cc21 | > 4 mM (inactive) |
| Nc1nonc1-c1nc2ccccc2[nH]1 | > 4 mM (inactive) |
| O=C(Nc1cccnc1)c1c(F)cccc1F | > 4 mM (inactive) |
| COC(=O)C1=CCCN(C)C1 | > 4 mM (inactive) |
| COc1c2ccoc2c(OC)c2oc(=O)ccc12 | > 4 mM (inactive) |
| COc1ccccc1NC(=O)c1ccc(C)s1 | > 4 mM (inactive) |
| Cc1nnc(Nc2cccnc2)[nH]c1=O | > 4 mM (inactive) |
| Cc1nc(-c2ccccc2)sc1CO | > 4 mM (inactive) |
| Cn1c(CNc2ccccc2)cc(=O)n(C)c1=O | > 4 mM (inactive) |
| CC(=O)Nc1ccc(S(=O)(=O)N2CCN=C2C)cc1 | > 4 mM (inactive) |
| COC(=O)c1cc(-c2c(C)nn(-c3ccccc3)c2C)n[nH]1 | > 4 mM (inactive) |
| Cc1n[nH]c(C)c1NC(=O)c1cccc(F)c1 | > 4 mM (inactive) |
| Clc1ccccc1OCCn1ccnc1 | > 4 mM (inactive) |
| COC(=O)Nc1nc2c(s1)CCCC2 | > 4 mM (inactive) |
| Clc1ccc(-n2ccnc2)nn1 | > 4 mM (inactive) |
| O=C(O)CCC(=O)NCc1cccnc1 | > 4 mM (inactive) |

| Structure (SMILES) | Kd |
| --- | --- |
| COc1cccc(NC(=O)c2cnn(C)c2Cl)c1 | > 4 mM (inactive) |
| O=C(/C=C/c1ccc(O)cc1)c1ccc(O)cc1O | > 4 mM (inactive) |
| O=C(O)CSc1nnc(-c2cccs2)o1 | > 4 mM (inactive) |
| Cc1[nH]c2ccccc2c1C=Nn1cncn1 | > 4 mM (inactive) |
| O=c1ccc2ccccc2o1 | > 4 mM (inactive) |
| O=C(O)c1ccc(-c2cccs2)s1 | > 4 mM (inactive) |
| Cn1ncc(CO)c1-c1ccccc1 | > 4 mM (inactive) |
| CC(=O)CS(=O)(=O)c1ccccc1 | > 4 mM (inactive) |
| CCN1CCN(CCCNc2ncnc3nc[nH]c23)CC1 | > 4 mM (inactive) |
| Cc1ccn(S(=O)(=O)c2ccc(C(C)(C)C)cc2)n1 | > 4 mM (inactive) |
| C=C(C)[C@H]1COc2cc3oc(=O)ccc3cc2O1 | > 4 mM (inactive) |
| O=S1(=O)CCC(NCc2ccccc2)C1 (configuration not stated) | > 4 mM (inactive) |
| O=C(O)c1ccc2c(c1)CCO2 | > 4 mM (inactive) |
| NC(=O)CSc1nnc(-c2ccncc2)o1 | > 4 mM (inactive) |
| CN1CCN(C(=O)/C=C\C(=O)O)CC1 | > 4 mM (inactive) |
| O=C1c2ccccc2C(=O)N1/N=C/c1ccc[nH]1 | > 4 mM (inactive) |
| CC(=O)O[C@H]1C[C@@H](OC(C)=O)C(C)(C)C2C[C@@H](OC(C)=O)[C@]3(C)C([C@H](OC(C)=O)C[C@@]4(C)[C@H](c5ccoc5)OC(=O)[C@H]5O[C@]543)[C@]21C (some centres not stated) | > 4 mM (inactive) |
| Cn1cc(Cl)c(C(=O)NC2CCCCCC2)n1 | > 4 mM (inactive) |
| O=c1[nH]cc(S(=O)(=O)Nc2ccccc2)c(=O)[nH]1 | > 4 mM (inactive) |
| NC(=O)CS(=O)(=O)c1ccc(Cl)cc1 | > 4 mM (inactive) |
| CNCc1ccccc1 | > 4 mM (inactive) |
| O=c1sc2ccccc2n1CN1CCOCC1 | > 4 mM (inactive) |
| Cc1nn(-c2ccccc2)nc1CO | > 4 mM (inactive) |
| O=C(O)Cn1nnnc1-c1ccc(F)cc1 | > 4 mM (inactive) |
| CN=C(c1ccc([N+](=O)[O-])cc1)N(C)C | > 4 mM (inactive) |

| Structure (SMILES) | Kd |
| --- | --- |
| Nc1ccc2c(c1)CCC2=O | > 4 mM (inactive) |
| Nc1nnc(COc2cccc(C(F)(F)F)c2)s1 | > 4 mM (inactive) |
| CC(=O)Oc1c(-c2ccccc2)oc2c(CC=C(C)C)c3c(c(OC(C)=O)c2c1=O)C=CC(C)(C)O3 | > 4 mM (inactive) |
| O=c1[nH]c(O)c(C=NC2CC2)c(=O)[nH]1 | > 4 mM (inactive) |
| CCC(=O)NC(=S)Nc1ccc(O)cc1 | > 4 mM (inactive) |
| C=C1CCC(C2CC(=O)OC2=O)C(=O)CCC2C1CC2(C)C (configuration not stated) | > 4 mM (inactive) |
| O=C(N1CCOCC1)N1CCN(c2ccccn2)CC1 | > 4 mM (inactive) |
| CCNS(=O)(=O)c1cc(Br)ccc1OC | > 4 mM (inactive) |
| NC(=O)CCS(=O)(=O)CCN1CCOCC1 | > 4 mM (inactive) |
| O=C(O)C1CSC(c2cccnc2)N1 (configuration not stated) | > 4 mM (inactive) |
| c1ccc(-c2csc3ncn4nnnc4c23)cc1 | > 4 mM (inactive) |
| CC1=C2[C@H]3OC(=O)[C@@H](C)[C@@H]3CC[C@@]2(C)C=CC1=O | > 4 mM (inactive) |
| O=c1oc2ccccc2cc1O | > 4 mM (inactive) |
| CN1CCN(C(=S)c2ccc(N(C)C)cc2)CC1 | > 4 mM (inactive) |
| CC(=O)OC1CCC2(C)C3CC(=O)C4(C)C(CC5OC6(CCC(C)CO6)[C@@H](C)C54)C3CC[C@H]2C1 (some centres not stated) | > 4 mM (inactive) |
| OCC1CCCC1O (configuration not stated) | > 4 mM (inactive) |
| CC1=NN2C(=N)/C(=C\c3cccs3)C(=O)N=C2S1 | > 4 mM (inactive) |
| CCOc1ccc(N2C(=O)CCC2=O)cc1 | > 4 mM (inactive) |
| O=C(NCc1cccs1)c1nc2ncccn2n1 | > 4 mM (inactive) |
| O=C(NCc1ccco1)c1nc2ncccn2n1 | > 4 mM (inactive) |
| Nc1cc(C(F)(F)F)ccc1N1CCOCC1 | > 4 mM (inactive) |
| O=C(CSc1ncccn1)NCc1ccco1 | > 4 mM (inactive) |
| CC(=O)Nc1cccc(Cn2cccn2)c1 | > 4 mM (inactive) |
| Cc1cc(C(=O)NC(C)c2ccncc2)cs1 (configuration not stated) | > 4 mM (inactive) |
| CC(=O)c1cc(-c2nc3ccccc3n2C)n(C)c1 | > 4 mM (inactive) |

| Structure (SMILES) | Kd |
| --- | --- |
| CCOC(=O)c1c(C)nc2ccccn12 | > 4 mM (inactive) |
| Cc1ccc(NC(=O)CC2NCCNC2=O)c(C)c1 (configuration not stated) | > 4 mM (inactive) |
| C/C=C(\C)c1nnc(NC(=O)C(C)C)s1 | > 4 mM (inactive) |
| CC(C)(O)[C@@H]1Cc2cc3ccc(=O)oc3cc2O1 | > 4 mM (inactive) |
| CC(Sc1ncn[nH]1)C(=O)O (configuration not stated) | > 4 mM (inactive) |
| Cc1cc(C(=O)Nc2ccon2)cs1 | > 4 mM (inactive) |
| CC1=C(/C=C/C(C)=C/C=C/C(C)=C/CO)C(C)(C)CCC1 | > 4 mM (inactive) |
| CC1O[C@@H](Oc2c(-c3ccc(O)c(O)c3)oc3cc(O)cc(O)c3c2=O)[C@H](O)[C@H](O)[C@H]1O (some centres not stated) | > 4 mM (inactive) |
| O=C(CC1SC(=O)NC1=O)Nc1ccccc1 (configuration not stated) | > 4 mM (inactive) |
| O=C1CCNc2cc3ccccc3cc21 | > 4 mM (inactive) |
| CC12CCC(O)CC1CCC1C2[C@H](O)CC2(C)C(C3=CC(=O)OC3)CCC12O (some centres not stated) | > 4 mM (inactive) |
| c1ccc(Cc2nnc3sc(-c4ccccn4)nn23)cc1 | > 4 mM (inactive) |
| COc1ccc2cc1Oc1ccc(cc1)C[C@H]1c3cc(c(OC)cc3CCN1C)Oc1c(OC)c(OC)cc3c1[C@H](C2)N(C)CC3 | > 4 mM (inactive) |
| COc1ccc2c(c1)OC/C(=C\c1ccc(OC)c(O)c1)C2=O | > 4 mM (inactive) |
| O=C(O)c1ccnn1-c1ccccc1 | > 4 mM (inactive) |
| Cc1cccc(NC(=O)Nc2cc(C)on2)c1 | > 4 mM (inactive) |
| Cc1cn2c(-c3cccnc3)nnc2s1 | > 4 mM (inactive) |
| Cc1nnc2sc(-c3csc4c3CCCC4)nn12 | > 4 mM (inactive) |
| Cc1nc2ccccc2c(=O)n1/N=C/c1ccncc1 | > 4 mM (inactive) |
| Cc1cccc(C)c1N1C(=O)CCC1=O | > 4 mM (inactive) |
| NC(=O)CN=Cc1c(O)[nH]c2ccccc12 | > 4 mM (inactive) |
| NC(=O)c1cccc(N2C(=O)C=CC2=O)c1 | > 4 mM (inactive) |
| CCOC(=O)c1cnc2cc(C)nn2c1C | > 4 mM (inactive) |
| Cc1csc(NC(=O)c2cccs2)n1 | > 4 mM (inactive) |
| COc1ccc2ccc(=O)oc2c1CC=C(C)C | > 4 mM (inactive) |

| Structure (SMILES) | Kd |
| --- | --- |
| O=S(=O)(Nc1cccnc1Cl)c1ccccc1 | > 4 mM (inactive) |
| CCOC(=O)Cn1cnc2c1c(=O)[nH]c(=O)n2C | > 4 mM (inactive) |
| Cc1csc(CCc2nc(C)cs2)n1 | > 4 mM (inactive) |
| CCOC(=O)c1cnc2sccn2c1=O | > 4 mM (inactive) |
| CC(C)(C(N)=O)/[N+]([O-])=C\c1ccccc1 | > 4 mM (inactive) |
| Cc1ccc(N2CCN(C(=O)c3ccccc3)CC2)c(C)c1 | > 4 mM (inactive) |
| CC(C)(C)c1cc(NC(=O)c2cccnc2)no1 | > 4 mM (inactive) |
| Nc1cccc(-n2cnnn2)c1 | > 4 mM (inactive) |
| O=C1CCC(C(=O)NCc2cccnc2)N1 (configuration not stated) | > 4 mM (inactive) |
| Cc1n[nH]c(C)c1-c1ccccc1C(=O)O | > 4 mM (inactive) |
| CC1(C)CC2(C)N(N)C(=O)CN2C(=S)N1 (configuration not stated) | > 4 mM (inactive) |
| CN1CCN(C2CCSC2)CC1 (configuration not stated) | > 4 mM (inactive) |
| O=C(NC1CCS(=O)(=O)C1)c1cccs1 (configuration not stated) | > 4 mM (inactive) |
| Cc1cccc(CSc2nncc(=O)[nH]2)c1 | > 4 mM (inactive) |
| Cc1cc(=O)n2nc(-c3ccccc3)sc2n1 | > 4 mM (inactive) |
| Cc1c(N=Cc2ccc[nH]2)c(=O)n(-c2ccccc2)n1C | > 4 mM (inactive) |
| COC(=O)Cc1cccc(OC)c1 | > 4 mM (inactive) |
| COc1ccccc1-c1nc(-c2ccc(C)nc2OC)no1 | > 4 mM (inactive) |
| c1ccc(CN2CCC3(CC2)Nc2ccccc2CO3)cc1 | > 4 mM (inactive) |
| COc1ccc(-c2cc3nc4n(c(=O)c3s2)CCC4)cc1 | > 4 mM (inactive) |
| COc1cc2c(cc1-c1cc3cc4ccoc4cc3oc1=O)OCO2 | > 4 mM (inactive) |
| NC(=O)c1ccsc1N | > 4 mM (inactive) |

Source: PubChem BioAssay AID1549 (Sanford-Burnham Center for Chemical Genomics, 2009)
